The text below walks through data of patent US7335776B2, “Remedies for depression containing EP1 antagonist as the active ingredient” (Ono Pharmaceutical Co., Ltd., priority 2002, dated 2008).

For one data set, the system named is male ddy mice. Description: Tail-suspension test in mice. It counts as in vivo. The settings on record: for Inhibition (%): inhibition of immobility vs. vehicle; for Inhibition (%) / Immobility time: 10 mg/kg orally 1 hour before measurement, ten animals per group; for Immobility time / Immobility time as compared with that in the vehicle treated group: tail suspension; for Immobility time: immobility time for 10 minutes; for Immobility time as compared with that in the vehicle treated group: rate of inhibition statistically significant. How it is done: It was confirmed by the following experiments that the compounds of formula of (IA)-(IK) could be useful for the treatment of depression. The following paper can be referred to about a tail-suspension test and its testing system in mice. • 1) Psychopharmacology (1985) 85: 367-370 • 2) Prog. Neuro-Psychopharmacol. & Biol. Psychiat. 1987 Vol. 11, 659-671 (1) Tail-Suspension Test in Mice
The test compound (10 mg/kg animal body weight) was administered orally to male ddy mice weighing around 30 g 1 hour before the beginning of measurement. The mice were suspended by their tail on the hook of Tail Suspension TEST System (Neuroscience, Inc., Model NS-TST01-SS2) using adhesive tape. The subsequent immobility time for 10 minutes was measured. If the mice have none of administration, they get about 300 seconds as an immobility time in this experiment. Generally, the medicine having an anti-depressive action shortens this immobility time.
In addition, in any case, ten animals were used for each group.

In a further data set the test system is male SD (IGS) rat. Description: Forced swim test in rats. Format: in vivo. To be noted: for Immobility time / Immobility time as compared with that in the vehicle treated group: forced swim; for Immobility time: 5 minutes observation on 2nd day; for Immobility time / Inhibition (%): test compound orally 5 mL/kg (desipramine intraperitoneally 2 mL/kg) after 1st examination and 1 hour before 2nd, twelve animals per group; for Inhibition (%): inhibition of immobility vs. vehicle; for Immobility time as compared with that in the vehicle treated group: rate of inhibition statistically significant. How it is done: The seven-week old male SD (IGS) rat freely fed was solely put into the forced swimming equipment (the cylinder (Neuroscience, Inc.) of diameter of inner 19 cm, and height 40 cm, depth-sounding 17 cm, water temperature of 23±1° C.) manufactured with the transparent acrylics board, and let it swim for 15 minutes. The rat was immediately dried after the end of trial and was returned to the home cage. […] In this time, the behavior of rat is distinguished by immobile state, struggling, submerging and swimming. The immobility time, period that rats were floating on the water by taking their head outside of the water without stroking by both legs, were measured. In addition, the water in equipment was exchanged for every trial. Moreover, one trial was conducted for each animal.
The test compound was administered orally by 5 mL/kg dosage immediately after the end of the examination on the 1st, and 1 hour before the examination on the 2nd. And, the positive control compound (desipramine; […]) was similarly administered intraperitoneally by 2 mL/kg dosage immediately after the end of the examination on the 1st, and 1 hour before the examination on the 2nd.
In addition, in any case, twelve animals were used for each group.

Data set [1] in a line: Toxicity (LD50 by oral administration to mouse). The settings on record: in vivo. How it is done: The toxicity of the compounds of the present invention is very low and therefore, it is confirmed that these compounds are safe for use as medicine. For example, LD50 values of the compound A and B of the present invention by oral administration to mouse are 2000 mg/kg and over.

On to `Cc1ccc(S(=O)(=O)N(CC(C)C)c2cc3c(cc2OCc2ccc(/C=C/C(=O)O)cc2)CCC3)o1` [Compound F, 4-[6-[N-isobutyl-N-(5-methyl-2-furylsulfonyl)amino]indan-5-yloxymethyl]cinnamic acid], for which, in the data set with male ddy mice, the “Inhibition (%)” value turned out to be 47 ± 9 %, the “Immobility time” value is 160 ± 26 s and the “Immobility time as compared with that in the vehicle treated group” value (shortened to “Immobility time as compared with that”) is given as “shortened”.

As to `Cc1cc(Cl)ccc1S(=O)(=O)NC[C@H]1C2CCC(CC2)[C@H]1/C=C\CCCC(=O)O` [Compound A, 6-[(2S, 3S)-3-(4-chloro-2-methylphenylsulfonylaminomethyl)-bicyclo[2.2.2]octan-2-yl]-5Z-hexenoic acid], in the data set with male ddy mice, the “Inhibition (%)” value is 30 ± 7 %, the “Immobility time” value turned out to be 202 ± 20 s and the “Immobility time as compared with that” value is given as “shortened”.

In the case of `CNCCCN1c2ccccc2CCc2ccccc21` [Desipramine, desipramine, reference compound], in the data set with male SD (IGS) rat, the “Immobility time” value stood at 112 ± 15 s and the “Inhibition (%)” value came out at 53 ± 6 %.

As usually defined, the LD50 is the dose at which mortality reaches 50%. Higher therefore signals a less toxic substance. Consider `Cc1ccc(S(=O)(=O)N(c2ccc(C(F)(F)F)cc2OCc2ccc(C(=O)O)cc2)C(C)C)o1` [Compound B, 4-[2-[N-isopropyl-N-(5-methyl-2-furylsulfonyl)amino]-5-trifluoromethylphenoxymethyl]benzoic acid], for which, in the data set with male SD (IGS) rat, the “Immobility time” value was determined as 163 ± 21 s, the “Immobility time as compared with that” value is recorded as “shortened” and the “Inhibition (%)” value stood at 31 ± 9 %. In addition, the LD50 in data set [1] is at least 2000 mg/kg. For the same compound, in the data set with male ddy mice, the “Inhibition (%)” value is given as 35 ± 8 %, the “Immobility time” value was determined as 194 ± 23 s and the “Immobility time as compared with that” value is listed as “shortened”.

In the case of `Cc1csc(S(=O)(=O)N(CC(C)C)c2cc3c(cc2OCc2ccc(C(=O)O)cc2)CCC3)n1` [Compound K, 4-[6-[N-isobutyl-N-(4-methyl-2-thizolylsulfonyl)amino]indan-5-yloxymethyl]benzoic acid], in the data set on male SD (IGS) rat, the “Immobility time” value was 172 ± 17 s, the “Immobility time as compared with that” value is “shortened” and the “Inhibition (%)” value is recorded as 29 ± 7 %.

Turning to `Cc1ccc(S(=O)(=O)N(CC(C)C)c2cc(C)c(C)cc2OCc2ccc(C(=O)O)cc2C)o1` [Compound E, 3-methyl-4-[2-[N-isobutyl-N-(5-methyl-2-furylsulfonyl)amino]4,5-dimethylphenoxymethyl]benzoic acid], in the data set on male ddy mice, the “Inhibition (%)” value was determined as 38 ± 12 %, the “Immobility time” value was determined as 185 ± 36 s and the “Immobility time as compared with that” value is “shortened”.

`CC(C)CN(c1ccc(C(F)(F)F)cc1OCc1ccc(C=CC(=O)O)cc1)S(=O)(=O)c1ccco1` [Compound C, 4-[2-(N-isobutyl-2-furanylsulfonylamino)-5-trifluoromethylphenoxymethyl]cinnamic acid]: in the data set with male ddy mice, the “Inhibition (%)” value is given as 23 ± 7 %, the “Immobility time” value amounted to 212 ± 20 s and the “Immobility time as compared with that” value was “shortened”.

With `Cc1ccc(S(=O)(=O)N(CC(C)C)c2cc(C)c(C)cc2OCc2ccc(C(=O)O)cc2)o1` [Compound D, 4 [2-[N-isobutyl-N-(5-methyl-2-furylsulfonyl)amino]-4,5-dimethylphenoxymethyl]benzoic acid], in the data set with male ddy mice, the “Inhibition (%)” value is listed as 27 ± 8 %, the “Immobility time” value stood at 217 ± 24 s and the “Immobility time as compared with that” value was “shortened”.

With `Cc1ccc(C(=O)N(c2ccc(C(F)(F)F)cc2OCc2ccc(/C=C/C(=O)O)cc2)C(C)C)o1` [Compound J, 4-[5-trifluoromethyl-2-[N-(5-methyl-2-furylcarbonyl)-N-isopropylamino]phenoxymethyl]cinnamic acid], in the data set on male SD (IGS) rat, the “Immobility time” value came to 194 ± 16 s, the “Immobility time as compared with that” value is “shortened” and the “Inhibition (%)” value is 20 ± 7 %.

`CCCN(c1cc(C)c(C)cc1OCc1ccc(C(=O)O)cc1)S(=O)(=O)c1ccc(C)o1` [Compound H, 4-[4,5-dimethyl-2-[N-(5-methyl-2-furylsulfonyl)-N-propylamino]phenoxymethyl]benzoic acid]: in the data set with male SD (IGS) rat, the “Immobility time” value stood at 156 ± 21 s, the “Immobility time as compared with that” value was “shortened” and the “Inhibition (%)” value was 35 ± 9 %.
